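Following 48 hours of exposure in 96-well plates, responses at five concentrations were used to interpolate endpoints linearly. At the GI50, growth is halved. TGI: total growth inhibition.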
Legend:
Assay in all cases: NCI-60 cell line screen, 48 h
[1] = tested on: HCC-2998 colon
[2] = tested on: SR leukemia
[3] = tested on: SNB-75 CNS
[4] = tested on: U251 CNS
[5] = tested on: ACHN renal
[6] = tested on: CCRF-CEM leukemia
[7] = tested on: MALME-3M melanoma
[8] = tested on: UO-31 renal
[9] = tested on: BT-549 breast
[10] = tested on: T-47D breast

| Structure (SMILES) | TGI [1] | TGI [2] | TGI [3] | TGI [4] | TGI [5] | TGI [6] | TGI [7] | TGI [8] | TGI [9] | TGI [10] | GI50 [1] | GI50 [3] | GI50 [4] | GI50 [5] | GI50 [6] | GI50 [7] | GI50 [8] | GI50 [9] | GI50 [10] | GI50 [2] |
| --- | --- | --- | --- | --- | --- | --- | --- | --- | --- | --- | --- | --- | --- | --- | --- | --- | --- | --- | --- | --- |
| COC1(C)C(=O)N2C1N(C(=O)OCc1ccccc1)CC2(C)C (stereo not drawn) | > 100 µM | > 100 µM | > 100 µM | > 100 µM | > 100 µM | > 100 µM | > 100 µM | > 100 µM | – | – | – | – | – | – | – | – | – | – | – | – |
| O=C(CCc1nc(=S)[nH][nH]1)Nc1cccc(C(F)(F)F)c1 | > 100 µM | > 100 µM | > 100 µM | > 100 µM | > 100 µM | > 100 µM | > 100 µM | > 100 µM | – | – | – | – | – | – | – | – | – | – | – | – |
| CC1=NN(C(=O)c2ccc(Cl)cc2)C(=O)/C1=C/c1ccc(Cl)cc1 | > 100 µM | – | – | > 100 µM | > 100 µM | > 100 µM | > 100 µM | > 100 µM | – | – | – | – | – | – | – | – | – | – | – | – |
| COCCOCOC(C)(C)[C@H](CCOC(C)=O)O[Si](c1ccccc1)(c1ccccc1)C(C)(C)C | 26 µM | 14 µM | > 100 µM | 30.6 µM | 51.1 µM | 23.7 µM | 55.3 µM | 36.9 µM | – | – | – | – | – | – | – | – | – | – | – | – |
| Cc1ccc(NC(=O)CC2SC(N)=NC2=O)cc1C (stereo not drawn) | > 100 µM | > 100 µM | > 100 µM | > 100 µM | > 100 µM | – | > 100 µM | > 100 µM | – | – | – | – | – | – | – | – | – | – | – | – |
| CC1=C(Cl)C[C@@H](/C(C)=C\Cl)O[C@@]1(O)C(Br)Br | 99.6 µM | 84.6 µM | > 100 µM | > 100 µM | 75 µM | 57.5 µM | 79.8 µM | 72.7 µM | 79.6 µM | – | – | – | – | – | – | – | – | – | – | – |
| CN1CCc2c1nc(-c1cccnc1)c1c2N(C)CC1 | > 100 µM | – | > 100 µM | > 100 µM | > 100 µM | > 100 µM | > 100 µM | > 100 µM | – | – | – | – | – | – | – | – | – | – | – | – |
| Cc1nc2c(sc(=S)n2-c2ccccc2)c2nc3ccccc3n12 | > 100 µM | – | > 100 µM | > 100 µM | > 100 µM | > 100 µM | > 100 µM | > 100 µM | – | – | – | – | – | – | – | – | – | – | – | – |
| COc1ccc(Cc2nc3ccccc3s2)cc1OC | 49 µM | 57.1 µM | 36.8 µM | 27.7 µM | 31 µM | 44.7 µM | 32.6 µM | 30 µM | – | – | – | – | – | – | – | – | – | – | – | – |
| NCCC(=O)NC(Cc1cnc[nH]1)C(=O)O (stereo not drawn) | > 100 µM | – | > 100 µM | > 100 µM | > 100 µM | > 100 µM | > 100 µM | > 100 µM | – | > 100 µM | – | – | – | – | – | – | – | – | – | – |
| NC(=O)C12CC3CC(CC(Br)(C3)C1)C2 | > 100 µM | > 100 µM | > 100 µM | > 100 µM | > 100 µM | > 100 µM | – | > 100 µM | – | – | – | – | – | – | – | – | – | – | – | – |
| COc1cc(/C=C\c2ccncc2)cc(OC)c1OC | – | – | > 100 µM | > 100 µM | > 100 µM | > 100 µM | > 100 µM | > 100 µM | – | – | – | – | – | – | – | – | – | – | – | – |
| Cc1ccc(Sc2oc(-c3ccc(C)cc3)nc2[P+](c2ccccc2)(c2ccccc2)c2ccccc2)cc1 | 1.57 µM | – | 0.846 µM | 1.41 µM | 1.16 µM | 1.64 µM | 0.813 µM | 0.935 µM | 1.37 µM | – | 0.399 µM | 0.154 µM | 0.303 µM | 0.311 µM | 0.31 µM | 0.241 µM | 0.24 µM | 0.365 µM | – | – |
| N/C(=N\c1nc2ccccc2s1)NC(=NC1CCCCC1)NC1CCCCC1 | 2.98 µM | – | 2.62 µM | 3.48 µM | 2.96 µM | 9.28 µM | 3.13 µM | 2.55 µM | 3.22 µM | 4.15 µM | 1.58 µM | 1.33 µM | 1.68 µM | 1.6 µM | 2.46 µM | 1.52 µM | 1.27 µM | 1.65 µM | 1.84 µM | – |
| CC(=O)NNc1nc(C)c(C(=O)/C=C/c2ccc(/C=C/C(=O)c3sc(NNC(C)=O)nc3C)cc2)s1 | > 100 µM | > 100 µM | – | > 100 µM | > 100 µM | > 100 µM | > 100 µM | > 100 µM | – | – | – | – | – | – | – | – | – | – | – | – |
| Nc1ccc(C(=O)N/C(=C\c2cccc([N+](=O)[O-])c2)c2nc3ccc(Cl)cc3[nH]2)cc1 | > 100 µM | > 100 µM | – | > 100 µM | > 100 µM | > 100 µM | > 100 µM | > 100 µM | – | – | – | – | – | – | – | – | – | – | – | – |
| N.N.N.N.N.O=S(=O)([O-])C(F)(F)F.O=S(=O)([O-])C(F)(F)F.[Os+8] | 20.2 µM | – | 28.5 µM | 32.5 µM | > 100 µM | 40.6 µM | 19.9 µM | 30.7 µM | – | – | 7.02 µM | 11.1 µM | 9.22 µM | 19.8 µM | 6.89 µM | 4.53 µM | 12.8 µM | – | – | – |
| COc1cc2c(cc1-c1coc3cc(OCC=C(C)C)ccc3c1=O)OCO2 | 44.8 µM | 33.3 µM | > 100 µM | > 100 µM | > 100 µM | – | – | > 100 µM | 48.4 µM | > 100 µM | – | – | – | – | – | – | – | – | – | – |
| COC/N=C(/N)NC#N | > 100 µM | 53.4 µM | > 100 µM | > 100 µM | > 100 µM | > 100 µM | > 100 µM | > 100 µM | – | – | – | – | – | – | – | – | – | – | – | – |
| CCN(C(=O)CN1CCN(c2cc3c(cc2F)c(=O)c(C(=O)O)cn3CC)CC1)c1nc(-c2ccccc2)cs1 | > 100 µM | – | > 100 µM | > 100 µM | > 100 µM | > 100 µM | 0.66 µM | > 100 µM | > 100 µM | – | 0.402 µM | 0.32 µM | 0.354 µM | 0.33 µM | 0.427 µM | 0.214 µM | 0.266 µM | 0.344 µM | – | – |
| O=C1/C(=C/c2cccc(Br)c2)COc2ccc(O)c(O)c21 | 3.1 µM | 2.81 µM | 3.83 µM | 2.29 µM | 2.5 µM | 1.69 µM | 3.06 µM | 2.14 µM | 4.35 µM | – | 1.67 µM | 0.933 µM | 1.1 µM | 1.24 µM | 0.312 µM | 1.49 µM | 0.958 µM | 2.03 µM | – | 0.349 µM |
| Nc1ncnc2c1nnn2C1C=C(CO)C(O)C1O (stereo not drawn) | > 100 µM | – | > 96.1 µM | > 100 µM | > 100 µM | > 100 µM | > 100 µM | > 100 µM | – | – | – | – | – | – | – | – | – | – | – | – |
